# Assays:
# [1] = tested on: chicory (varieties Ecrine, Hermès); assay: Yield of chicons after forcing; type: in vivo, Cichorium intybus; settings: 171 DAAC and 21 days after start of forcing; for Yield of Chicons, Brut, Average / Yield of Chicons, Brut, Ecrine / Yield of Chicons, Brut, Hermès: total weight of chicons; for Yield of Chicons, Brut, Average: average of both varieties; for Yield of Chicons, Extra + 1, Ecrine / Yield of Chicons, Extra + 1, Hermès: weight of Extra and First Class chicons; for Yield of Chicons, Net, Ecrine / Yield of Chicons, Net, Hermès: weight of marketable chicons
# Experimental: Trials were also performed to investigate the effect of post-emergence applications of penoxsulam or SAFARI® (triflusulfuron-methyl) on the yield of chicons in two different varieties of chicory. The trial was carried out on plots measuring 3×5 meters. Two varieties of chicory (Hermes and Ecrine) were sown. Treatments were carried out, as described above (a) 18 days after sowing, (b) 25 days after sowing, and (c) 32 days after sowing. Trial assessments were carried out 21 DAAC and 46 DAAC on the number of plants per linear meter, and on their development stage (number of leaves per plant).
# (§1) Harvest was carried out 171 DAAC on 4 rows per plot. After harvest, the roots were counted and weighted, and the percent of roots usable for forcing was measured. The roots were then stored in a conservation room for 21 days until start of forcing phase. After 21 days of forcing, the chicons produced were weighed and classified in the commercial quality categories. The brut yield (total weight of chicons produced; marketable+non-marketable), net yield (weight of marketable chicons produced) and best class yield (Extra+1=weight of Extra and First Class chicons produced) were measured (in kilograms per 10 square meters (kg/10 m^2)).
# [2] = tested on: chicory (varieties Ecrine, Hermès); assay: Chicory leaf development after post-emergence applications; parameters: species or system Cichorium intybus; settings: in vivo
# Experimental: (§2) Field trials were conducted in Northern France and Belgium, both of which are major areas for root chicory and whitloof chicory production. Trials were conducted in accordance with EPPO standard PP 1/99(3) entitled “Weeds in Roots Vegetables,” PP 1/152(4) entitled “Design and Analysis of Efficacy Evaluation Trials,” PP 1/135(3) entitled “Phytotoxic Assessment,” and PP 1/181(4) entitled “Conduct and Reporting of Efficacy Evaluation Trials Including Good Experimental Practice,” all of which are incorporated herein by reference in their entirety.
# Application to all field trials was made using a small plot precision sprayer operating at between 160-400 kilopascals (kPa) pressure, delivering a spray volume of 150-400 liters per hectare (L/ha). Nozzles were of a flat fan type. Trial plot size ranged from 4.5×2.5 square meters (m^2) to 10.5×2.5 m^2. Plots were replicated 3 or 4 times and were arranged in a randomized block design within each trial. […]
# (§3) In whitloof chicory (Cichorium intybus), treatments were evaluated which included either two or three post-emergence applications of herbicide. Multiple applications of herbicide were evaluated for their ability to control weed emergence during the extended period of time required for chicory cultivation. […]
# [3] = tested on: Senecio vulgaris (common groundsel), SENVU; assay: Field trial, post-emergence weed control in chicory; type: in vivo; settings: 1 trial, 30 days after last application
# Experimental: as §2
# (§4) Application to all field trials was made using a small plot precision sprayer operating at between 160-400 kilopascals (kPa) pressure, delivering a spray volume of 150-400 liters per hectare (L/ha). Nozzles were of a flat fan type. Trial plot size ranged from 4.5×2.5 square meters (m^2) to 10.5×2.5 m^2. Plots were replicated 3 or 4 times and were arranged in a randomized block design within each trial. All trials received a pre-emergence application of BONALAN® at 6 L/ha (benfluralin; 180 grams active ingredient per liter (g ai/L); commercially available from Dow AgroSciences LLC) with incorporation to prevent the emergence of grasses which could complicate the assessment of broadleaf control.
# (§5) In whitloof chicory (Cichorium intybus), treatments were evaluated which included either two or three post-emergence applications of herbicide. Multiple applications of herbicide were evaluated for their ability to control weed emergence during the extended period of time required for chicory cultivation. Trials included different combinations of application rate and application timing. Broadcast applications were made from May to July, covering a range of possible application timings. Penoxulam was applied at a maximum total rate of 15 g/ha per season, applied in two or three applications with a minimum of seven days between applications. Treatment with penoxsulam involved application of either BOA® or VIPER® (2.14% weight per weight (w/w) oil dispersions of penoxsulam commercially available from Dow AgroSciences LLC). Trials were also conducted using another ALS mode-of-action herbicide (i.e., the sulfonylurea triflusulfuron-methyl). Triflusulfuron-methyl was applied at a maximum total rate of 30 g/ha per season, applied in two or three applications with a minimum of seven days between applications. Treatment with triflusulfuron-methyl involved application of SAFARI® (triflusulfuron-methyl; commercially available from DuPont Crop Protection).
# (§6) Prior to treatment application, assessments of weed populations (number of plants per m^2) were carried out using a quadrant square and an appropriate number of sampling points.
# (§7) 1) Visual rating in percent of the overall volume reduction of vegetation for each species compared to the nearest untreated plot (Plant/Control/% visual; 0%=no control; 100%=all weeds dead). Assessments of this type were performed by Dow AgroSciences LLC in France.
# (§8) Assessments of weed control were carried out at 14, 28, 56 and 84 days or longer after each application timing (DAAA=days after application A, DAAB=days after application B or DAAC=days after application C).
# [4] = tested on: Capsella bursa-pastoris (shepherd's purse), CAPBP; assay: as above; type: in vivo; settings: 2 trials, 30 days after last application
# Experimental: as §2, §4, §5, §6, §7, §8
# [5] = tested on: Solanum nigrum (black nightshade), SQLNI; assay: as above; type: in vivo; settings: 2 trials, 30 days after last application
# Experimental: as §2, §4, §5, §6, §7, §8
# [6] = tested on: chicory (varieties Ecrine, Hermès); assay: Chicory root development (number of roots) after post-emergence applications; type: in vivo, Cichorium intybus; settings: treatment with penoxsulam in chicory field trials
# Experimental: Field trials were conducted in Northern France and Belgium, both of which are major areas for root chicory and whitloof chicory production. Trials were conducted in accordance with EPPO standard PP 1/99(3) entitled “Weeds in Roots Vegetables,” PP 1/152(4) entitled “Design and Analysis of Efficacy Evaluation Trials,” PP 1/135(3) entitled “Phytotoxic Assessment,” and PP 1/181(4) entitled “Conduct and Reporting of Efficacy Evaluation Trials Including Good Experimental Practice,” all of which are incorporated herein by reference in their entirety. […]
# as §3
# as §1, with “The roots were then stored in a conservation room for 21 days until start of forcing phase. After 21 days of forcing, the chicons produced were weighed and classified in the commercial quality categories.” left out
# [7] = 3 applications 3.73/3.73/3.73 g ai/ha
compound,measurement,setting,value
COc1cnc(OC)n2nc(NS(=O)(=O)c3c(OCC(F)F)cccc3C(F)(F)F)nc12 [Penoxsulam],"Yield of Chicons, Brut, Average",[1]; 5/5/5 g ai/ha,40.7 Kg/10 m^2
same,"Yield of Chicons, Brut, Average",[1]; 7.5/7.5/7.5 g ai/ha,40.8 Kg/10 m^2
same,"Yield of Chicons, Brut, Average",[1]; 7.5/7.5 g ai/ha,39.6 Kg/10 m^2
same,"Yield of Chicons, Brut, Average",[1]; 10/10/10 g ai/ha,45.1 Kg/10 m^2
same,"Yield of Chicons, Brut, Average",[1]; 11.2/11.2 g ai/ha,39.9 Kg/10 m^2
same,"Yield of Chicons, Brut, Average",[1]; 15/15 g ai/ha,39.9 Kg/10 m^2
same,"Yield of Chicons, Brut, Ecrine",[1]; 5/5/5 g ai/ha,47.5 Kg/10 m^2
same,"Yield of Chicons, Brut, Hermès",[1]; 5/5/5 g ai/ha,33.8 Kg/10 m^2
same,"Yield of Chicons, Brut, Ecrine",[1]; 7.5/7.5/7.5 g ai/ha,45.1 Kg/10 m^2
same,"Yield of Chicons, Brut, Hermès",[1]; 7.5/7.5/7.5 g ai/ha,36.5 Kg/10 m^2
same,"Yield of Chicons, Brut, Ecrine",[1]; 7.5/7.5 g ai/ha,42.4 Kg/10 m^2
same,"Yield of Chicons, Brut, Hermès",[1]; 7.5/7.5 g ai/ha,36.7 Kg/10 m^2
same,"Yield of Chicons, Brut, Ecrine",[1]; 10/10/10 g ai/ha,50.7 Kg/10 m^2
same,"Yield of Chicons, Brut, Hermès",[1]; 10/10/10 g ai/ha,39.4 Kg/10 m^2
same,"Yield of Chicons, Brut, Ecrine",[1]; 11.2/11.2 g ai/ha,42.8 Kg/10 m^2
same,"Yield of Chicons, Brut, Hermès",[1]; 11.2/11.2 g ai/ha,37 Kg/10 m^2
same,"Yield of Chicons, Brut, Ecrine",[1]; 15/15 g ai/ha,46.4 Kg/10 m^2
same,"Yield of Chicons, Brut, Hermès",[1]; 15/15 g ai/ha,33.4 Kg/10 m^2
same,"Yield of Chicons, Extra + 1, Ecrine",[1]; 5/5/5 g ai/ha,29 Kg/10 m^2
same,"Yield of Chicons, Extra + 1, Hermès",[1]; 5/5/5 g ai/ha,17.7 Kg/10 m^2
same,"Yield of Chicons, Extra + 1, Ecrine",[1]; 7.5/7.5/7.5 g ai/ha,27.2 Kg/10 m^2
same,"Yield of Chicons, Extra + 1, Hermès",[1]; 7.5/7.5/7.5 g ai/ha,18.6 Kg/10 m^2
same,"Yield of Chicons, Extra + 1, Ecrine",[1]; 7.5/7.5 g ai/ha,28.2 Kg/10 m^2
same,"Yield of Chicons, Extra + 1, Hermès",[1]; 7.5/7.5 g ai/ha,21.1 Kg/10 m^2
same,"Yield of Chicons, Extra + 1, Ecrine",[1]; 10/10/10 g ai/ha,29.5 Kg/10 m^2
same,"Yield of Chicons, Extra + 1, Hermès",[1]; 10/10/10 g ai/ha,19.2 Kg/10 m^2
same,"Yield of Chicons, Extra + 1, Ecrine",[1]; 11.2/11.2 g ai/ha,25 Kg/10 m^2
same,"Yield of Chicons, Extra + 1, Hermès",[1]; 11.2/11.2 g ai/ha,22.8 Kg/10 m^2
same,"Yield of Chicons, Extra + 1, Ecrine",[1]; 15/15 g ai/ha,30.7 Kg/10 m^2
same,"Yield of Chicons, Extra + 1, Hermès",[1]; 15/15 g ai/ha,16.1 Kg/10 m^2
same,"Yield of Chicons, Net, Ecrine",[1]; 5/5/5 g ai/ha,36.4 Kg/10 m^2
same,"Yield of Chicons, Net, Hermès",[1]; 5/5/5 g ai/ha,25.6 Kg/10 m^2
same,"Yield of Chicons, Net, Ecrine",[1]; 7.5/7.5/7.5 g ai/ha,34.6 Kg/10 m^2
same,"Yield of Chicons, Net, Hermès",[1]; 7.5/7.5/7.5 g ai/ha,25.7 Kg/10 m^2
same,"Yield of Chicons, Net, Ecrine",[1]; 7.5/7.5 g ai/ha,33.9 Kg/10 m^2
same,"Yield of Chicons, Net, Hermès",[1]; 7.5/7.5 g ai/ha,26.6 Kg/10 m^2
same,"Yield of Chicons, Net, Ecrine",[1]; 10/10/10 g ai/ha,38.7 Kg/10 m^2
same,"Yield of Chicons, Net, Hermès",[1]; 10/10/10 g ai/ha,27.7 Kg/10 m^2
same,"Yield of Chicons, Net, Ecrine",[1]; 11.2/11.2 g ai/ha,33.2 Kg/10 m^2
same,"Yield of Chicons, Net, Hermès",[1]; 11.2/11.2 g ai/ha,28.6 Kg/10 m^2
same,"Yield of Chicons, Net, Ecrine",[1]; 15/15 g ai/ha,37.4 Kg/10 m^2
same,"Yield of Chicons, Net, Hermès",[1]; 15/15 g ai/ha,22.5 Kg/10 m^2
same,Average number of leaves (measured 21 DAAC) Average,[2],7 a
same,% Visual Weed Control,[3]; 2 applications 5.6/5.6 g ai/ha,50%
same,% Visual Weed Control,[3]; 2 applications 7.5/7.5 g ai/ha,100%
same,% Visual Weed Control,[3]; [7],60%
same,% Visual Weed Control,[3]; 3 applications 5/5/5 g ai/ha,100%
same,% Visual Weed Control,[4]; 2 applications 5.6/5.6 g ai/ha,100%
same,% Visual Weed Control,[4]; 2 applications 7.5/7.5 g ai/ha,100%
same,% Visual Weed Control,[4]; [7],100%
same,% Visual Weed Control,[4]; 3 applications 5/5/5 g ai/ha,100%
same,% Visual Weed Control,[5]; 2 applications 5.6/5.6 g ai/ha,66.5%
same,% Visual Weed Control,[5]; 2 applications 7.5/7.5 g ai/ha,100%
same,% Visual Weed Control,[5]; [7],83.4%
same,% Visual Weed Control,[5]; 3 applications 5/5/5 g ai/ha,83.4%
same,effect on root yield,[6],no deleterious effect on root yield

# Reference: patent US9226506B2, “Methods of weed control in chicory” (Dow AgroSciences LLC, priority 2013, dated 2016)
